By MIC is commonly meant the lowest concentration found to suppress growth. High values mean weaker potency, low ones greater potency.

Molecules are shown by their SMILES. In brackets after ≈: the same amount, converted by molar mass.

Test [1] deals with Pseudomonas aeruginosa. Put plainly: Antibacterial activity against blaVIM-2-positive Pseudomonas aeruginosa by CLSI Etest method. The format is functional.
Test [2] has as its system Pseudomonas aeruginosa. The experiment in a line: Antibacterial activity against blaVIM-2-positive Pseudomonas aeruginosa by CLSI broth microdilution method. Format: functional. For orientation: Dilution methods test growth across graded concentrations, often in twofold steps.

`C[C@@H](O)[C@H]1C(=O)N2C(C(=O)O)=C(SCCNC=N)C[C@H]12` [IMIPENEM ANHYDROUS] gave an MIC against Pseudomonas aeruginosa [1] of no less than 128 µg/mL.

In turn, `C[C@@H](O)[C@H]1C(=O)N2C(C(=O)O)=C(S[C@@H]3CN[C@H](C(=O)N(C)C)C3)[C@H](C)[C@H]12` [MEROPENEM] had an MIC in the test on Pseudomonas aeruginosa [2] of 32 µg/mL (≈ 83.4 µM).

For the origin of these results see ChEMBL document CHEMBL1671648, “Molecular epidemiology of outbreak-related pseudomonas aeruginosa strains carrying the novel variant blaVIM-17 metallo-beta-lactamase gene” (2009).
